The values that follow are results of earlier work, collected in PubChem BioAssay AID1259409 (Chemical Carcinogenesis Research Information System (CCRIS), 2018).

Each structure is given as a SMILES string.

The data set deals with rodent chemically induced tumor inhibition, incidence and multiplicity. Kind of data set: CCRIS tumor inhibitor studies. The settings on record: Carcinogen: DIETHYLNITROSAMINE, 55-18-5, N-METHYL-N-NITROSOUREA, 684-93-5, N-BUTYL-N-(4-HYDROXYBUTYL)NITROSAMINE, 3817-11-6, DIMETHY, Carcinogen: DIETHYLNITROSAMINE, 55-18-5, N-METHYL-N-NITROSOUREA, 684-93-5, N-BUTYL-N-(4-HYDROXYBUTYL)NITROSAMINE, 3817-11-6, DIMETHY, Dose [Inhibitor]: 0, Route [Inhibitor]: ORAL, Species: RAT, Strain/Sex: F344/MALE, Dose [Carcinogen]: 100 MG/KG BW DEN ONCE FOLLOWED BY 20 MG/KG BW MNU 4 TIMES AND 0.05% BBN IN DRINKING WATER DURING FIRST 2 WK THEN 40 MG/K, Promoter: NONE USED.

Regarding `CCOC1=C(O)C(=O)O[C@@H]1[C@@H](O)CO`, the “tumour outcome (control, treated, inhibition, significance)” value is, setting by setting: (1% IN THE DIET FOR 24 WK BEGINNING 1 DAY POST CARCINOGEN TREATMENT (STUDY DURATION: 28 WK), Target Tissue: Type of Lesion: URINARY BLADDER: PAPILLOMA) 7%, 7%, 0%, not significant; (1% IN THE DIET FOR 30 D BEGINNING 1 DAY PRIOR TO CARCINOGEN TREATMENT (STUDY DURATION: 28 WK), Target Tissue: Type of Lesion: LARGE INTESTINE: ADENOMA) 27%, 33%, -22%, not significant; (1% IN THE DIET FOR 30 D BEGINNING 1 DAY PRIOR TO CARCINOGEN TREATMENT (STUDY DURATION: 28 WK), Target Tissue: Type of Lesion: LARGE INTESTINE: CARCINOMA) 7%, 40%, -471%, not significant; (1% IN THE DIET FOR 30 D BEGINNING 1 DAY PRIOR TO CARCINOGEN TREATMENT (STUDY DURATION: 28 WK), Target Tissue: Type of Lesion: SMALL INTESTINE: ADENOMA) 33%, 7%, 79%, not significant; (1% IN THE DIET FOR 30 D BEGINNING 1 DAY PRIOR TO CARCINOGEN TREATMENT (STUDY DURATION: 28 WK), Target Tissue: Type of Lesion: SMALL INTESTINE: CARCINOMA) 7%, 7%, 0%, not significant; (1% IN THE DIET FOR 30 D BEGINNING 1 DAY PRIOR TO CARCINOGEN TREATMENT (STUDY DURATION: 28 WK), Target Tissue: Type of Lesion: THYROID: CARCINOMA) 7%, 0%, 100%, not significant. Moreover, the “tumour outcome (control, treated, inhibition, significance)” value by setting is: (1% IN THE DIET FOR 30 DAYS BEGINNING 1 DAY PRIOR TO CARCINOGEN TREATMENT (STUDY DURATION: 28 WK), Target Tissue: Type of Lesion: URINARY BLADDER: CARCINOMA) 7%, 7%, 0%, not significant; (1% IN THE DRINKING WATER FOR 24 WK BEGINNING 1 DAY POST CARCINOGEN TREATMENT (STUDY DURATION: 28 WK), Target Tissue: Type of Lesion: SMALL INTESTINE: CARCINOMA) 7%, 0%, 100%, not significant.
